From patent US10570122B2, “Compounds with anti-tumoral activity” (AB Science, priority 2015, dated 2020)
pIC50: −log10 of the molar value.

Columns and labels:
PANC1 = experiment: CellTiter-Blue cell-based survival/proliferation assay, PANC1; conditions: Homo sapiens, PANC-1; PANC_1 pancreas tumor cell line, 48 h
Summary of the method: (§1)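 Tenfold compound dilutions (0–10 μM) were added to 1·10^4 cells/well. Plates incubated 48 h at 37 °C. CellTiter-Blue reduction (4 h, 37 °C) was read as fluorescence at 590 nm, background-corrected with a cell-free blank.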

U118 = experiment: CellTiter-Blue cell-based survival/proliferation assay, U118; conditions: Homo sapiens; U118 glioblastoma cell line, 48 h
Summary of the method: as §1

DLD1 = experiment: CellTiter-Blue cell-based survival/proliferation assay, DLD1; conditions: Homo sapiens, DLD-1; DLD_1 colorectal tumor cell line, 48 h
Summary of the method: as §1

CLS354 = experiment: CellTiter-Blue cell-based survival/proliferation assay, CLS354; conditions: Homo sapiens, CLS-354; CLS354_4 head & neck tumor cell line, 48 h
Summary of the method: as §1

HEPG2 = experiment: CellTiter-Blue cell-based survival/proliferation assay, HEPG2; conditions: Homo sapiens; HEPG2 liver tumor cell line, 48 h
Summary of the method: as §1

TOV112D = experiment: CellTiter-Blue cell-based survival/proliferation assay, TOV112D; conditions: Homo sapiens; TOV112D ovary tumor cell line, 48 h
Summary of the method: as §1

CALU6 = experiment: CellTiter-Blue cell-based survival/proliferation assay, CALU6; conditions: Homo sapiens, Calu-6; CALU6 lung tumor cell line, 48 h
Summary of the method: as §1

REC1 = experiment: CellTiter-Blue cell-based survival/proliferation assay, REC1; conditions: Homo sapiens, Lymphoma cell line REC1, 48 h, read-out: Anti-tumoral activity (measured IC50) REC1
Summary of the method: as §1

SW579 = experiment: CellTiter-Blue cell-based survival/proliferation assay, SW579; conditions: Homo sapiens; SW579 head & neck tumor cell line, 48 h
Summary of the method: as §1

A4513 = experiment: CellTiter-Blue cell-based survival/proliferation assay, A4513; conditions: Homo sapiens; A4513 Ewing cell line, 48 h
Summary of the method: as §1

DU145 = experiment: CellTiter-Blue cell-based survival/proliferation assay, DU145; conditions: Homo sapiens, DU-145; DU145 prostate tumor cell line, 48 h
Summary of the method: as §1

MDAMB231 = experiment: CellTiter-Blue cell-based survival/proliferation assay, MDAMB231; conditions: Homo sapiens, MDA-MB-231; MDAMB231 breast tumor cell line, 48 h
Summary of the method: as §1

AGS = experiment: CellTiter-Blue cell-based survival/proliferation assay, AGS; conditions: Homo sapiens; AGS stomach tumor cell line, 48 h
Summary of the method: as §1

U87MG = experiment: CellTiter-Blue cell-based survival/proliferation assay, U87MG; conditions: Homo sapiens, U-87 MG; U87_MG glioblastoma cell line, 48 h
Summary of the method: as §1

A375 = experiment: CellTiter-Blue cell-based survival/proliferation assay, A375; conditions: Homo sapiens, A-375; A375 melanoma cell line, 48 h
Summary of the method: as §1

HCT116 = experiment: CellTiter-Blue cell-based survival/proliferation assay, HCT116; conditions: Homo sapiens, HCT-116; HCT116 colorectal tumor cell line, 48 h
Summary of the method: as §1

U2OS = experiment: CellTiter-Blue cell-based survival/proliferation assay, U2OS; conditions: Homo sapiens; U2OS osteosarcoma cell line, 48 h
Summary of the method: as §1

HL60 = experiment: CellTiter-Blue cell-based survival/proliferation assay, HL60; conditions: Homo sapiens, HL-60, Leukemia cell line HL60, 48 h, read-out: Anti-tumoral activity (measured IC50) HL60
Summary of the method: as §1

HGC27 = experiment: CellTiter-Blue cell-based survival/proliferation assay, HGC27; conditions: Homo sapiens, HGC-27; HGC27 stomach tumor cell line, 48 h
Summary of the method: as §1

H1299 = experiment: CellTiter-Blue cell-based survival/proliferation assay, H1299; conditions: Homo sapiens, NCI-H1299; H1299 lung tumor cell line, 48 h
Summary of the method: as §1

MELWO = experiment: CellTiter-Blue cell-based survival/proliferation assay, MELWO; conditions: Homo sapiens; MEL_WO melanoma cell line, 48 h
Summary of the method: as §1

KARPAS299 = experiment: CellTiter-Blue cell-based survival/proliferation assay, KARPAS299; conditions: Homo sapiens, KARPAS-299, Lymphoma cell line KARPAS299, 48 h, read-out: Anti-tumoral activity (measured IC50) KARPAS299
Summary of the method: as §1

OPM2 = experiment: CellTiter-Blue cell-based survival/proliferation assay, OPM2; conditions: Homo sapiens, OPM-2, Myeloma cell line OPM2, 48 h, read-out: Anti-tumoral activity (measured IC50) OPM2
Summary of the method: as §1

BXPC3 = experiment: CellTiter-Blue cell-based survival/proliferation assay, BXPC3; conditions: Homo sapiens, BXPC-3; BXPC3 pancreas tumor cell line, 48 h
Summary of the method: as §1

[1] = test system: human kinases (456 kinases); experiment: KINOMEscan in vitro kinase profiling; type: binding
Experimental: An in vitro kinase profiling was conducted in order to evidence the absence of protein kinase inhibition by the compounds of the invention.
DiscoveRx (Ambit Biosciences) has developed a high-throughput system (KINOMEscan™) for screening of compounds against large numbers of human kinases (456 kinases).
The compounds of the invention were screened at the concentration of 1 μM, and results for primary screen binding interactions were reported as percent control (% Ctrl), where lower numbers indicate stronger hits. DMSO is used as a negative control (100% Ctrl) while a high affinity compound is used as a positive control (0% Ctrl). % Ctrl is calculated as follow:
[formula] Selectivity Score or S-score is a quantitative measure of compound selectivity. It is calculated by dividing the number of kinases that compounds bind to by the total number of distinct kinases tested, excluding mutant variants. S(10)=(number of kinases with % Ctrl<10)/(number of kinases tested), S(1)=(number of kinases with % Ctrl<1)/(number of kinases tested).

A498 = experiment: CellTiter-Blue cell-based survival/proliferation assay, A498; conditions: Homo sapiens; A498 kidney tumor cell line, 48 h
Summary of the method: as §1

PC3 = experiment: CellTiter-Blue cell-based survival/proliferation assay, PC3; conditions: Homo sapiens, PC-3; PC3 prostate tumor cell line, 48 h
Summary of the method: as §1

PLCPRF5 = experiment: CellTiter-Blue cell-based survival/proliferation assay, PLCPRF5; conditions: Homo sapiens, PLC-PRF-5; PLC_PRF5 liver tumor cell line, 48 h
Summary of the method: as §1

HEP2 = experiment: CellTiter-Blue cell-based survival/proliferation assay, HEP2; conditions: Homo sapiens, HEp-2; HEP2 head & neck tumor cell line, 48 h
Summary of the method: as §1

HUT78 = experiment: CellTiter-Blue cell-based survival/proliferation assay, HUT78; conditions: Homo sapiens, Lymphoma cell line HUT78, 48 h, read-out: Anti-tumoral activity (measured IC50) HUT78
Summary of the method: as §1

ACHN = experiment: CellTiter-Blue cell-based survival/proliferation assay, ACHN; conditions: Homo sapiens; ACHN kidney tumor cell line, 48 h
Summary of the method: as §1

A549 = experiment: CellTiter-Blue cell-based survival/proliferation assay, A549; conditions: Homo sapiens; A549 lung tumor cell line, 48 h
Summary of the method: as §1

BT20 = experiment: CellTiter-Blue cell-based survival/proliferation assay, BT20; conditions: Homo sapiens, BT-20; BT20 breast tumor cell line, 48 h
Summary of the method: as §1

MESSA = experiment: CellTiter-Blue cell-based survival/proliferation assay, MESSA; conditions: Homo sapiens, MES-SA; MESSA ovary tumor cell line, 48 h
Summary of the method: as §1

[2] = test system: panel of about 34 human tumor cell lines; experiment: Cell-based proliferation screening on panel of tumor cell lines; conditions: solid tumor cell line, cell line unknown, 48 h, read-out: IC50, solid tumor cell line of column 6 (last section of Table 3)
Summary of the method: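 CellTiter-Blue survival assay with 1·10^4 cells/well, each line treated 48 h at 37° C with 1/10 serial dilutions from 0 to 10 μM. Resorufin formed during a 4 h reagent incubation is read by fluorescence at 590 nm. A cell-free blank serves as background.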

RL = experiment: CellTiter-Blue cell-based survival/proliferation assay, RL; conditions: Homo sapiens, Lymphoma cell line RL, 48 h, read-out: Anti-tumoral activity (measured IC50) RL
Experimental: Cell-Based Proliferation Screening of Compounds
CellTiter-Blue cell-based survival/proliferation assay (Promega G8080) was performed on tumor cell lines. A total of 1·10^4 cells/well/50 μl were seeded in a 96-wells plate. Treatment was initiated by addition of a 2× drug solution of 1/10 serial dilutions ranging from 0 to 10 μM. Cells were grown for 48 h at 37° C. and then incubated with 10 μl/well of Promega CellTiter-Bleue reagent for 4 h at 37° C. The amount of resorufin dye formed was quantified by its fluorescence emission at 590 nm using a scanning multiwell spectrophotometer (OPTIMA, BMG labtech, France). A blank well without cells was used as a background control for the spectrophotometer.

CCOCc1ccc(C)c(Nc2ncc(-c3ccc(N4CCNC4=O)cc3)o2)c1 [Example 006, 1-{4-[2-(5-Ethoxymethyl-(2-methyl-phenylamino))-oxazol-5-yl]-phenyl}-imidazolidin-2-one]
pIC50 (PANC1): < 6.00
pIC50 (U118): < 6.00
pIC50 (DLD1): ≥ 7.00
pIC50 (CLS354): ≥ 7.00
pIC50 (HEPG2): < 6.00
pIC50 (TOV112D): ≥ 7.00
pIC50 (CALU6): < 6.00
pIC50 (REC1): ≥ 7.00
pIC50 (SW579): < 6.00
pIC50 (A4513): ≥ 7.00
pIC50 (DU145): < 6.00
pIC50 (MDAMB231): ≥ 7.00
pIC50 (AGS): < 6.00
pIC50 (U87MG): < 6.00
pIC50 (A375): ≥ 7.00
pIC50 (HCT116): < 6.00
pIC50 (U2OS): 6.30 to 7.00
pIC50 (HL60): ≥ 7.00
pIC50 (HGC27): < 6.00
pIC50 (H1299): < 6.00
pIC50 (MELWO): ≥ 7.00
pIC50 (KARPAS299): ≥ 7.00
pIC50 (OPM2): ≥ 7.00
pIC50 (BXPC3): ≥ 7.00
Interaction with the 456 kinases tested ([1]; screened at 1 μM): do not efficiently interact
Number of hits/number of kinases, S1 ([1]; tested at 1 μM, S(1): kinases with % Ctrl<1): 0/456
S-score, S1 ([1]; tested at 1 μM, S(1)=(number of kinases with % Ctrl<1)/(number of kinases tested)): 0.000
Number of hits/number of kinases, S10 ([1]; tested at 1 μM, S(10): kinases with % Ctrl<10): 0/456
S-score, S10 ([1]; tested at 1 μM, S(10)=(number of kinases with % Ctrl<10)/(number of kinases tested)): 0.000
Kinase targets, S1 ([1]; tested at 1 μM, kinases with % Ctrl<1): None
pIC50 (A498): 6.30 to 7.00
pIC50 (PC3): ≥ 7.00
pIC50 (PLCPRF5): < 6.00
pIC50 (HEP2): < 6.00
pIC50 (HUT78): ≥ 7.00
pIC50 (ACHN): ≥ 7.00
pIC50 (A549): < 6.00
pIC50 (BT20): 6.30 to 7.00
pIC50 (MESSA): < 6.00

CCOCc1ccc(C)c(Nc2ncc(-c3ccc(-n4ccnc4)cc3)o2)c1 [Example 037, (5-Ethoxymethyl-2-methyl-phenyl)-[5-(4-imidazol-1-yl-phenyl)-oxazol-2-yl]-amine]
pIC50 (PANC1): < 6.00
pIC50 (DLD1): < 6.00
pIC50 (CLS354): < 6.00
pIC50 (HEPG2): < 6.00
pIC50 (TOV112D): < 6.00
pIC50 (CALU6): < 6.00
pIC50 (SW579): < 6.00
pIC50 (DU145): < 6.00
pIC50 (MDAMB231): < 6.00
pIC50 (AGS): < 6.00
pIC50 (HCT116): < 6.00
pIC50 (HL60): < 6.00
pIC50 (HGC27): < 6.00
pIC50 (H1299): < 6.00
pIC50 (KARPAS299): < 6.00
pIC50 [2]: < 6.00
pIC50 (OPM2): < 6.00
pIC50 (BXPC3): < 6.00
pIC50 (RL): < 6.00
pIC50 (A498): < 6.00
pIC50 (PC3): < 6.00
pIC50 (PLCPRF5): < 6.00
pIC50 (HEP2): < 6.00
pIC50 (HUT78): < 6.00
pIC50 (ACHN): < 6.00
pIC50 (A549): < 6.00
pIC50 (BT20): < 6.00
pIC50 (MESSA): < 6.00
